Assay results from patent US20220125051A1, “PRE-HARVEST DESICCATION METHOD” (SYNGENTA CROP PROTECTION AG, priority 2019, published 2022).
Like-named read-outs stand apart in the source and are kept apart here.

Assays:
Test in all cases: Post-emergence efficacy, Method A
Format in all cases: in vivo
Details in all cases: evaluated after 13 days
[1] = test system: Echinochloa crus-galli (ECHCG)
How it was run: (§1)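 Plants raised 14 days from seed in standard soil in a glasshouse (24/16 °C day/night, 14 h light, 65% humidity) were sprayed with compound dissolved in acetone plus IF50 solvent/emulsifier (50 g/l solution), diluted with 0.25% or 1% Empicol ESC70 + 1% ammonium sulphate. Damage was scored visually after 13 days (0 = none, 100 = total).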

[2] = test system: Chenopodium album (CHEAL)
How it was run: as §1

[3] = test system: Digitaria sanguinalis (DIGSA)
How it was run: as §1

Lolium perenne (LOLPE) = test system: Lolium perenne (LOLPE)
How it was run: as §1

[4] = test system: Ipomoea hederacea (IPOHE)
How it was run: as §1

Setaria faberi (SETFA) = test system: Setaria faberi (SETFA)
How it was run: as §1

Eleusine indica (ELEIN) = test system: Eleusine indica (ELEIN)
How it was run: as §1

[5] = test system: Amaranthus palmeri (AMAPA)
How it was run: as §1

[6] = test system: Euphorbia heterophylla (EPHHL)
How it was run: as §1

[7] = Echinochloa crus-galli, post-emergence, 312 h, Application Rate 500 g/Ha, Method A, read-out: Control of weed species after post-emergence application, ECHCG (100=total damage to plant; 0=no damage to plant)
[8] = Chenopodium album, post-emergence, 312 h, Application Rate 500 g/Ha, Method A, read-out: Control of weed species after post-emergence application, CHEAL (100=total damage to plant; 0=no damage to plant)
[9] = Digitaria sanguinalis, post-emergence, 312 h, Application Rate 500 g/Ha, Method A, read-out: Control of weed species after post-emergence application, DIGSA (100=total damage to plant; 0=no damage to plant)
[10] = Lolium perenne, post-emergence, 312 h, Application Rate 500 g/Ha, Method A, read-out: Control of weed species after post-emergence application, LOLPE (100=total damage to plant; 0=no damage to plant)
[11] = Ipomoea hederacea, post-emergence, 312 h, Application Rate 500 g/Ha, Method A, read-out: Control of weed species after post-emergence application, IPOHE (100=total damage to plant; 0=no damage to plant)
[12] = Setaria faberi, post-emergence, 312 h, Application Rate 500 g/Ha, Method A, read-out: Control of weed species after post-emergence application, SETFA (100=total damage to plant; 0=no damage to plant)
[13] = Eleusine indica, post-emergence, 312 h, Application Rate 500 g/Ha, Method A, read-out: Control of weed species after post-emergence application, ELEIN (100=total damage to plant; 0=no damage to plant)
[14] = Amaranthus palmeri, post-emergence, 312 h, Application Rate 500 g/Ha, Method A, read-out: Control of weed species after post-emergence application, AMAPA (100=total damage to plant; 0=no damage to plant)
[15] = Euphorbia heterophylla, post-emergence, 312 h, Application Rate 500 g/Ha, Method A, read-out: Control of weed species after post-emergence application, EPHHL (100=total damage to plant; 0=no damage to plant)
[16] = Echinochloa crus-galli, post-emergence, 312 h, Application rate 500 g/Ha, 100=total damage to plant, 0=no damage to plant, read-out: Control of weed species after post-emergence application, ECHCG
[17] = Chenopodium album, post-emergence, 312 h, Application rate 500 g/Ha, 100=total damage to plant, 0=no damage to plant, read-out: Control of weed species after post-emergence application, CHEAL
[18] = Digitaria sanguinalis, post-emergence, 312 h, Application rate 500 g/Ha, 100=total damage to plant, 0=no damage to plant, read-out: Control of weed species after post-emergence application, DIGSA
[19] = Lolium perenne, post-emergence, 312 h, Application rate 500 g/Ha, 100=total damage to plant, 0=no damage to plant, read-out: Control of weed species after post-emergence application, LOLPE
[20] = Ipomoea hederacea, post-emergence, 312 h, Application rate 500 g/Ha, 100=total damage to plant, 0=no damage to plant, read-out: Control of weed species after post-emergence application, IPOHE
[21] = Setaria faberi, post-emergence, 312 h, Application rate 500 g/Ha, 100=total damage to plant, 0=no damage to plant, read-out: Control of weed species after post-emergence application, SETFA
[22] = Eleusine indica, post-emergence, 312 h, Application rate 500 g/Ha, 100=total damage to plant, 0=no damage to plant, read-out: Control of weed species after post-emergence application, ELEIN
[23] = Amaranthus palmeri, post-emergence, 312 h, Application rate 500 g/Ha, 100=total damage to plant, 0=no damage to plant, read-out: Control of weed species after post-emergence application, AMAPA
[24] = Euphorbia heterophylla, post-emergence, 312 h, Application rate 500 g/Ha, 100=total damage to plant, 0=no damage to plant, read-out: Control of weed species after post-emergence application, EPHHL
[25] = Application Rate 500 g/Ha, Method A

Row | SMILES | pest or weed control at 500 g/ha [1, 7] [%] | pest or weed control at 500 g/ha [2, 8] [%] | pest or weed control at 500 g/ha [3, 9] [%] | pest or weed control at 500 g/ha (Lolium perenne (LOLPE); [10]) [%] | pest or weed control at 500 g/ha [4, 11] [%] | pest or weed control at 500 g/ha (Setaria faberi (SETFA); [12]) [%] | pest or weed control at 500 g/ha (Eleusine indica (ELEIN); [13]) [%] | pest or weed control at 500 g/ha [5, 14] [%] | pest or weed control at 500 g/ha [6, 15] [%] | pest or weed control at 500 g/ha [1, 16] [%] | pest or weed control at 500 g/ha [2, 17] [%] | pest or weed control at 500 g/ha [3, 18] [%] | pest or weed control at 500 g/ha (Lolium perenne (LOLPE); [19]) [%] | pest or weed control at 500 g/ha [4, 20] [%] | pest or weed control at 500 g/ha (Setaria faberi (SETFA); [21]) [%] | pest or weed control at 500 g/ha (Eleusine indica (ELEIN); [22]) [%] | pest or weed control at 500 g/ha [5, 23] [%] | pest or weed control at 500 g/ha [6, 24] [%] | further results
1 | CNS(=O)(=O)c1cnc(-c2cc[n+](CCC(=O)O)nc2)nc1 [Compound A209] | – | – | – | – | – | – | – | – | – | – | – | – | – | – | – | – | – | – | pest or weed control at 125 g/ha ([1]; Echinochloa crus-galli, post-emergence, 312 h, Application Rate 125 g/Ha, Method A, read-out: Control of weed species after post-emergence application, ECHCG (100=total damage to plant; 0=no damage to plant)): 10%; pest or weed control at 125 g/ha ([2]; Chenopodium album, post-emergence, 312 h, Application Rate 125 g/Ha, Method A, read-out: Control of weed species after post-emergence application, CHEAL (100=total damage to plant; 0=no damage to plant)): 10%; pest or weed control at 125 g/ha ([3]; Digitaria sanguinalis, post-emergence, 312 h, Application Rate 125 g/Ha, Method A, read-out: Control of weed species after post-emergence application, DIGSA (100=total damage to plant; 0=no damage to plant)): 30%; pest or weed control at 125 g/ha (Lolium perenne (LOLPE); Lolium perenne, post-emergence, 312 h, Application Rate 125 g/Ha, Method A, read-out: Control of weed species after post-emergence application, LOLPE (100=total damage to plant; 0=no damage to plant)): 10%; pest or weed control at 125 g/ha ([4]; Ipomoea hederacea, post-emergence, 312 h, Application Rate 125 g/Ha, Method A, read-out: Control of weed species after post-emergence application, IPOHE (100=total damage to plant; 0=no damage to plant)): 0%; pest or weed control at 125 g/ha (Setaria faberi (SETFA); Setaria faberi, post-emergence, 312 h, Application Rate 125 g/Ha, Method A, read-out: Control of weed species after post-emergence application, SETFA (100=total damage to plant; 0=no damage to plant)): 20%; pest or weed control at 125 g/ha (Eleusine indica (ELEIN); Eleusine indica, post-emergence, 312 h, Application Rate 125 g/Ha, Method A, read-out: Control of weed species after post-emergence application, ELEIN (100=total damage to plant; 0=no damage to plant)): 0%; pest or weed control at 125 g/ha ([5]; Amaranthus palmeri, post-emergence, 312 h, Application Rate 125 g/Ha, Method A, read-out: Control of weed species after post-emergence application, AMAPA (100=total damage to plant; 0=no damage to plant)): 30%; pest or weed control at 125 g/ha ([6]; Euphorbia heterophylla, post-emergence, 312 h, Application Rate 125 g/Ha, Method A, read-out: Control of weed species after post-emergence application, EPHHL (100=total damage to plant; 0=no damage to plant)): 0%
2 | O=P(O)(O)CC[n+]1ccc(-c2ncccn2)cn1 [Compound A198] | 80 | 100 | 80 | 50 | 50 | 90 | 80 | 100 | 100 | – | – | – | – | – | – | – | – | – | –
3 | O=S(=O)([O-])CC[n+]1ccc(-c2ncc(Cl)cc2Cl)cn1 [Compound A142] | – | – | – | – | – | – | – | – | – | 40 | 20 | 40 | 10 | 20 | 30 | 60 | 10 | 60 | –
4 | O=S(=O)([N-]CC[n+]1ccc(-c2ncccn2)cn1)C(F)(F)F [Compound A225] | 30 | 90 | 60 | 30 | 70 | 30 | 90 | 100 | 100 | – | – | – | – | – | – | – | – | – | –
5 | O=C(O)CC[n+]1ccc(-c2ccnc(C(F)(F)F)c2)cn1 [Compound A166] | 50 | 50 | 70 | 70 | 60 | 40 | 60 | 30 | 60 | – | – | – | – | – | – | – | – | – | –
6 | Cc1cccnc1-c1cc[n+](CCS(=O)(=O)[O-])nc1 [Compound A66] | – | – | – | – | – | – | – | – | – | 50 | 20 | 30 | 50 | 40 | 60 | 40 | 40 | 50 | –
7 | CCOC(=O)CC[n+]1ccc(-c2ncccn2)cn1 [Compound A82] | – | – | – | – | – | – | – | – | – | 30 | 80 | 30 | 0 | 20 | 60 | 60 | 70 | 40 | –
8 | COc1ccnc(-c2cc[n+](CCS(=O)(=O)[O-])nc2)n1 [Compound A13] | – | – | – | – | – | – | – | – | – | 50 | 50 | 70 | 50 | 50 | 60 | 100 | 100 | 70 | –
9 | O=S(=O)([O-])CC[n+]1ccc(-c2ccc(C(F)(F)F)nn2)cn1 [Compound A122] | – | – | – | – | – | – | – | – | – | 40 | 100 | 40 | 70 | 70 | 60 | 90 | 100 | 100 | –
10 | N[C@H](CC[n+]1ccc(-c2ccncn2)cn1)C(=O)O [Compound A235] | 30 | 40 | 40 | 0 | 20 | 30 | 10 | 10 | 20 | – | – | – | – | – | – | – | – | – | –
11 | O=S(=O)(O)CC[n+]1ccc(-c2cccnc2)cn1 [Compound A179] | – | – | – | – | – | – | – | – | – | – | – | – | – | – | – | – | – | – | Control of weed species after post-emergence application, ECHCG (100=total damage to plant; 0=no damage to plant) [1, 25]: 40; Control of weed species after post-emergence application, CHEAL (100=total damage to plant; 0=no damage to plant) [2, 25]: 30; Control of weed species after post-emergence application, DIGSA (100=total damage to plant; 0=no damage to plant) [3, 25]: 50; Control of weed species after post-emergence application, LOLPE (100=total damage to plant; 0=no damage to plant) (Lolium perenne (LOLPE); [25]): 10; Control of weed species after post-emergence application, IPOHE (100=total damage to plant; 0=no damage to plant) [4, 25]: 20; Control of weed species after post-emergence application, SETFA (100=total damage to plant; 0=no damage to plant) (Setaria faberi (SETFA); [25]): 60; Control of weed species after post-emergence application, ELEIN (100=total damage to plant; 0=no damage to plant) (Eleusine indica (ELEIN); [25]): 50; Control of weed species after post-emergence application, AMAPA (100=total damage to plant; 0=no damage to plant) [5, 25]: 30; Control of weed species after post-emergence application, EPHHL (100=total damage to plant; 0=no damage to plant) [6, 25]: 60
